Laboratory results as given in patent US8030354B2, “Substituted biphenyl GPR40 modulators” (Amgen Inc., priority 2007, dated 2011).

How the values were obtained:
GPR40 [1] = target: T1, GPR40 (Homo sapiens, UniProt O14842); assay: Inositol phosphate accumulation in response to compounds; assay type: cell-based; design: expressed in transfected cells; conditions: FIG. 3; as a function of concentration; compared with Comparative Compound 1
From the text: FIG. 3 is a graph showing inositol phosphate accumulation in response to various compounds as a function of concentration.

GPR40 [2] = target: T1, GPR40; assay: Displacement of 3H-labeled Comparative Compound 1 by unlabeled compounds; assay type: binding; design: expressed in transfected cells; host or cells: membranes of A9 cells expressing GPR40; conditions: FIG. 1
GPR40 [3] = target: T1, GPR40; assay: Competition binding assay on A9 membranes expressing GPR40 with [3H] labeled Comparative Compound 1; design: expressed in transfected cells; host or cells: membranes of A9 cells expressing GPR40; conditions: 5 nM radioligand, 4 hours, room temperature
Method: Competition binding assays were performed on A9 membranes expressing GPR40.

GPR40 [4] = target: T1, GPR40; assay: Cell-based aequorin assay (CHO cells stably expressing GPR40 and aequorin); design: expressed in transfected cells; host or cells: CHO cells stably transfected with GPR40 and aequorin; conditions: for EC50: activation of human GPR40, CHO cells, 0.01% HSA
Procedure, shortened: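 CHO cells stably co-expressing GPR40 and aequorin, loaded with coelenterazine (1 ug/mL, 2 h, room temperature) in H/HBSS with 20 mM Hepes and 0.01% fatty acid-free HSA. Serially diluted compounds added; luminescence recorded over 20 s. EC50 from dose-response of maximum relative light units.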

GPR40 [5] = target: T1, GPR40; assay: Inositol phosphate accumulation assay (A9_GPR40 cells); assay type: cell-based; design: expressed in transfected cells; host or cells: CHO cells stably transfected with GPR40 and aequorin; conditions: for agonist type in inositol phosphate accumulation assay: [3H] inositol accumulation after 1 hour, FIG. 3; for EC50: inositol phosphate assay, A9_GPR40 cells, 1 hour, read-out: IP3 EC50
Procedure, shortened: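 [^3H] inositol phosphate accumulation was measured by SPA after 1 h compound exposure at 37° C in HBSS/10 mM LiCl containing HSA, ending with a 20 mM formic acid quench. The GPR40-transfected A9 cells had first been labelled overnight (16 h) with 1 μCi/mL ^3H-inositol.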

[6] = tested on: fetal rat intestinal cells isolated from E19 rat embryos; assay: GLP-1 secretion into culture medium from fetal rat intestinal cells; assay type: cell-based; conditions: FIG. 5-7; cultured cells treated with serial dilutions of compound
Method: (§1) FIG. 5 is a graph showing the concentration of GLP-1 secreted into culture medium as a function of the amount of Example compounds 14 and 69.8. The GLP-1 was secreted from fetal rat intestinal cells isolated from E19 rat embryos. The cultured cells were treated with serial dilutions of the indicated compounds, and GLP-1 secreted into the culture medium was determined.
as §1, with “6” for “5”, “compound 66.6.” for “compounds 14 and 69.8.”, “compound,” for “compounds,”
as §1, with “7” for “5”, “14, 66.17, 77.3,” for “14”, “83.1.” for “69.8.”

GPR40 [7] = target: T1, GPR40; assay: Aequorin luminescence in response to compounds; assay type: cell-based; design: expressed in transfected cells; conditions: FIG. 2; as a function of concentration; compared with fatty acid ligands
From the text: FIG. 2 is a graph showing Aequorin luminescence in response to various compounds as a function of concentration.

T1 sequence (O14842 whole entry): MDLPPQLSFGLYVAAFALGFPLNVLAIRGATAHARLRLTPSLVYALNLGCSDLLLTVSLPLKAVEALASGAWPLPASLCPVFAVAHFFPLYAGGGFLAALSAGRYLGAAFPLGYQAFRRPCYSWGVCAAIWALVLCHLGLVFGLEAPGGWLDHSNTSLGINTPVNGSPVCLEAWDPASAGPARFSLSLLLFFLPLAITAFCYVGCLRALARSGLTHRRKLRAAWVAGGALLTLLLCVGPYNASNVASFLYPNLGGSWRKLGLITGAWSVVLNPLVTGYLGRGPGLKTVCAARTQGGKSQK

SMILES | inositol phosphate accumulation (GPR40 [1]) | displacement of 3H-labeled Comparative Compound 1 / total binding of 3H-labeled Comparative Compound 1 (GPR40 [2]) | displacement of bound [3H] labeled Comparative Compound 1 (GPR40 [3]) | effect on binding of the radioligand (Comparative Compound 1) to the receptor (GPR40 [3]) | EC50 (GPR40 [4]) [nM] | agonist type in inositol phosphate accumulation assay (GPR40 [5]) | EC50 (GPR40 [5]) [nM] | concentration of GLP-1 secreted into culture medium [6] | Aequorin luminescence (GPR40 [7]) | agonist type in aequorin assay (GPR40 [4]; compared with α-linolenic acid and docosahexaenoic acid, FIG. 2)
CCCCOc1cc(COc2cccc([C@@H](CC(=O)O)C3CC3)c2)ccc1-c1cc(OC)ccc1F (single isomer, unassigned) [Example 9, (3S)-3-(3-(((2-(Butyloxy)-2′-fluoro-5′-(methyloxy)-1,1′-biphenyl-4-yl)methyl)oxy)phenyl)-3-cyclopropylpropanoic acid or (3R)-3-(3-(((2-(butyloxy)-2′-fluoro-5′-(methyloxy)-1,1′-biphenyl-4-yl)methyl)oxy)phenyl)-3-cyclopropylpropanoic acid] | greater than Comparative Compound 1 | enhanced the total binding | did not displace | enhanced the binding of the radioligand | 100 to 1000 | potent full agonists | 100 to 1000 | – | – | –
COc1ccc(F)c(-c2ccc(COc3cccc([C@@H](CC(=O)O)C4CC4)c3)cc2C2=CCCC2(C)C)c1 (single isomer, unassigned) [Example 14, (3S)-3-Cyclopropyl-3-(3-(((2-(5,5-dimethyl-1-cyclopenten-1-yl)-2′-fluoro-5′-(methyloxy)-1,1′-biphenyl-4-yl)methyl)oxy)phenyl)propanoic acid or (3R)-3-cyclopropyl-3-(3-(((2-(5,5-dimethyl-1-cyclopenten-1-yl)-2′-fluoro-5′-(methyloxy)-1,1′-biphenyl-4-yl)methyl)oxy)phenyl)propanoic acid] | greater than Comparative Compound 1 | enhanced the total binding | did not displace | enhanced the binding of the radioligand | 100 to 1000 | potent full agonists | 10 to 100 | significantly stimulated GLP-1 secretion | equivalent to naturally occurring fatty acid ligands | potent full agonists
